Data taken from US10898483B2, “Methods for inducing an immune response by promoting premature termination codon read-through” (MOONSHOT PHARMA LLC, priority 2015, dated 2021).

Columns and labels:
[1] = tested on: intratumoral T-cell infiltrates (CD45+, CD3+, CD8+, and CD4+ cells); assay: FACS analysis for intratumoral T-cell infiltrates; format: in vivo, C57BL/6 mice; conditions: FIG. 5
Protocol: FACS analysis: Tumor cells were isolated from each treatment group and FACS analysis performed according to methods which are well known in the art.

[2] = tested on: MC38 tumor cells; assay: MC38 subcutaneous tumor model in C57BL/6 mice, tumor volume by caliper; format: in vivo; set-up: Percent inhibition of tumor volume: concentration or dose not given beside the values; conditions: for Percent inhibition of tumor volume: negative values indicate an increase in tumor volume; for Mean tumor volume: PTC124 20 mg/kg i.p. QD, antibodies 10 mg/kg (anti-CD8 200 ug/mouse) BIW x 3 weeks
Protocol: Animals: Female 6-8 week old (estimated age at inoculation) C57BL/6 mice were obtained from Shanghai Lingchang Bio-Technology Co. Ltd (LC, Shanghai, China). The animals were housed at 20˜26° C. with a 12 hours light and 12 hours darkness cycle.
Cell Culture: MC38 tumor cells were maintained in vitro as a monolayer culture in DMEM medium supplemented with 10% fetal bovine serum at 37° C. in an atmosphere of 5% CO2 in air. The tumor cells were routinely subcultured twice weekly. Cells in an exponential growth phase were harvested and counted for tumor inoculation.
Therapeutic compounds: Ataluren (PTC124) was obtained from Selleck Chemicals (Houston, Tex.). Anti-PD-1 and anti-CTLA-4 antibodies were obtained from BioXCell as was an anti-CD8 antibody.
Tumor Inoculation: Each mouse was inoculated subcutaneously at the right lower flank region with MC38 tumor cells (1×10^6) in 0.1 mL of PBS for tumor development. The treatments were started when the mean tumor size reaches approximately 50 mm^3. The date of tumor cell inoculation was denoted as day 0.
Group assignment: Before grouping and treatment, all animals were weighed and the tumor volumes measured using a caliper. Tumor volume was used as numeric parameter to randomize selected animals into specified groups in order to minimize systematic error. The grouping was performed by using StudyDirector™ software (Studylog Systems, Inc. CA, USA). One optimal randomization design (generated by Matched distribution) showing minimal group to group variation in tumor volume was selected for group allocation.
After tumor cell inoculation, the animals were checked daily for morbidity and mortality as well as any effects of tumor growth and treatments on normal behavior such as mobility, visual estimation of food and water consumption, body weight gain/loss, eye/hair matting and any other abnormal effect. Tumor volumes were measured twice weekly at least in two dimensions using a caliper, and the volume expressed in mm^3 using the formula: V=0.5 a×b^2 where a and b are the long and short diameters of the tumor, respectively.

[3] = tested on: normal stop codons; conditions: cited from earlier work
[4] = tested on: CD3+ immune cells infiltrating tumor tissue; assay: Immunohistochemistry of sectioned tumor tissue for immune cell infiltration; format: in vivo, C57BL/6 mice; conditions: FIG. 4
Protocol: Immunohistochemistry (IHC): Formalin-fixed paraffin-embedded (FFPE) tissue from tumor samples were sectioned to 4 um. Antigen retrieval (AR) was conducted at 100° C., in EDTA buffer, at pH 9.0 for 20 min. Primary antibody (diluted with validated concentration), RT 60 min+ secondary antibody (ready-to-use), RT 60 min+Bond Polymer Refine Detection.

[5] = phase-I clinical study in cystic fibrosis; cited from earlier work

**Q.** Which results are given for `O=C(O)c1cccc(-c2noc(-c3ccccc3F)n2)c1` [PTC124, 3-[5-(2-Fluorophenyl)-1,2,4-oxadiazol-3-yl]benzoic acid]?
**A.** Intratumoral T-cell infiltrates (CD45+, CD3+, CD8+, and CD4+ cells) by FACS [1]: increased intratumoral T-cell infiltrates; Percent inhibition of tumor volume ([2]; Day 9): −0.96%; Mean tumor volume ([2]; Day 9 after inoculation (randomization)): 52.46 mm^3; Mean tumor volume ([2]; Day 12): 72.34 mm^3; Percent inhibition of tumor volume ([2]; Day 12): 13.94%; Mean tumor volume ([2]; Day 15): 128.58 mm^3; Percent inhibition of tumor volume ([2]; Day 15): 1.20%; Mean tumor volume ([2]; Day 18): 231.26 mm^3; Percent inhibition of tumor volume ([2]; Day 18): 19.87%; Mean tumor volume ([2]; Day 22): 388.94 mm^3; Percent inhibition of tumor volume ([2]; Day 22): 18.64%; Mean tumor volume ([2]; Day 25): 617.86 mm^3; Percent inhibition of tumor volume ([2]; Day 25): 22.82%; Mean tumor volume ([2]; Day 29): 988.37 mm^3; Percent inhibition of tumor volume ([2]; Day 29): 21.47%; Mean tumor volume ([2]; Day 32): 1459.49 mm^3; Percent inhibition of tumor volume ([2]; Day 32): 18.16%; Tumor inhibition (in words) ([2]; MC38 tumor-bearing C57BL/6 mice, Table 6, FIGS. 1-3): has tumor inhibition-promoting properties; Ribosomal read-through of normal stop codons [3]: does not induce ribosomal read-through of normal stop codons; CD3+ immune cells infiltrating tumor tissue (immunohistochemical analysis) [4]: significant numbers of CD3+ immune cells infiltrating tumor tissue; Read-through activity compared with aminoglycosides [5]: more efficient read-through activity than aminoglycosides; Tolerability [5]: generally well tolerated
